Results on 1 compound are retold here after patent US10327423B2, “Antimicrobial compounds and compositions, and uses thereof” (Akeso Biomedical, Inc., priority 2014, dated 2019).

Entries after “also recorded” stand apart in the source; their conditions may differ.

Assay [1] deals with PAO-1 strains of Pseudomonas aeruginosa. Description: Biofilm formation on contact lenses (ESEM). To be noted: FeQ 340 μM in LB; 37° C.; 24 hours. The class given is cell-based. On the procedure: To investigate biofilm formation on the contact lens, clinically determined PAO-1 strains of Pseudomonas aeruginosa were incubated with the lenses in either Luria-Bertani Media (LB) or LB with a final concentration of 340 μM FeQ at 37° C. for 24 hours in a non-shaking incubator. The lenses were then washed 6 times with PBS+0.05% Tween, before being stored overnight in PBS+0.05% Tween. In preparation for the ESEM, formaldehyde was added to a final concentration of 1% and incubated for 10 minutes in order to inactivate the bacteria. The lenses were then washed 4 times with PBS+0.05% Tween, and immediately before analysis the lenses were washed a further two times with distilled water.

Assay [2] can be described thus: Treatment of an acne patient. The class given is in vivo, human. On the procedure: A patient was treated continuously for 30 days by applying a solution of ferric quinate (340 μM) to their acne vulgarism (“acne”) once each day. Within 5 days of the start of treatment, their acne, which had not previously responded to treatment with antibiotics, began to show signs of healing.

Assay [3] relates to Enterococcus faecalis NCTC 12697. As to the kind of experiment: Biofilm formation on plastic coated UV beads. Type of assay: cell-based. To be noted: different concentrations of Fe-QA; T=24 h. As for the experimental part:
Bacteria (Enterococcus faecalis NCTC 12697, Staphylococcus epidermidis F1513 and Staphylococcus aureus ATCC 25923) were grown on Brain heart infusion (BHI) passaged to new medium either containing Fe-QA or alone. Growth suspensions were prepared at 0.0001 OD/ml and then allowed to grow at 37° C. under normal atmospheric conditions for 24 h in BHI with plastic coated UV beads (Lascells). […], 10 μl suspension was serially diluted 10 fold to 10-3, 10-4, 10-5, 10-6, 10-7, 10-8. For each dilution, 10 μl was spotted on BHI agar plates and colonies counted after 24 h. The beads were also removed washed in PBS before adding to 1 ml PBS. After vortex mixing, 10 μl of the cell suspension was serially diluted as above and cell counts carried out.

The next assay relates to C. jejuni NCTC 11168. As to the kind of experiment: ELISA of C. jejuni binding to histo-blood group antigens (BgAgs). The arrangement: species or system Campylobacter jejuni. The note with it: for binding of C. jejuni to Le^b and H-II after growth in medium with Fe-QA: washed away before ELISA, one and four passages. On the procedure: Binding of C. jejuni NCTC 11168 to the BgAgs (common ABO histo-blood group antigens), Le^b and H-II was measured after growing the bacteria in a medium that has either Fe-QA at 0.34 mM or 3.4 mM. The binding is measured by washing away the Fe-Q containing medium prior to testing the bacteria by ELISA as described below. Binding was measured after one passage and four passages (4 generations) with Fe-QA included in the medium, and compared to a control without Fe-QA.
The ELISA was performed as follows: BSA-BgAg conjugates were obtained from IsoSep, Tullinge, Sweden. Coupling of BgAgs to 96-well plates (NUNC Immobilizer Amino) was carried out by the addition of 100 μl BSA-BgAg (5 μg/ml unless stated otherwise) in sodium carbonate buffer to each well. Plates were incubated at room temperature for 2 h before unbound reagent was removed by washing three times in PBS-T. All wells were blocked by the addition of […] 1% BSA/PBS and incubated for 2 h at room temperature. After further washing in PBS-T, […] of DIG-tagged bacteria (at OD600 of 0.05) were added to each well and incubated overnight at 4° C. Plates were washed three times in PBS-T before […] anti-digoxigenin-POD solution (Roche Diagnostics; 1 in 5000 diluted in 1% BSA/PBS) was added and incubated for 1 h at room temperature. Plates were again vigorously washed in PBS-T and color developed by adding 100 μl ABTS substrate (Roche). Plates were read with an ELISA reader (Biotek EL800) at an absorbance of 405 nm. Specific binding was determined by subtracting the binding of each strain to BSA (typically OD405 0.07-0.09) from the binding to each BSA-BgAg conjugate. Inhibition assays shown in FIG. 4B were carried out as above but after the removal of the blocking solution, DIG-labeled C. jejuni was pre-incubated for 4 h with an Fe-QA solution (0.34 mM) before being added to each well.

The test system of the next assay is Pseudomonas aeruginosa. Description: Planktonic growth rate in RPMI-1640. The class given is cell-based. The note with it: Fe-QA 100 μM. As for the experimental part: (§1) The growth rate of Uropathogenic E. coli UPEC-536 in RPMI-1640 media over a period of 24 hours was compared to the growth rate of UPEC in RPMI-1640 media, but in the presence of 100 μM Fe-QA. The growth rate of Pseudomonas aeruginosa in RPMI-1640 media was also compared to the growth rate of Pseudomonas aeruginosa in RPMI-1640 media, but in the presence of 100 μM Fe-QA.

For assay [4], the system named is Campylobacter jejuni NCTC 11168 (wildtype and strain carrying a kanamycin resistance gene). As to the kind of experiment: Patch test on growth plates with Fe-QA and kanamycin. The class given is cell-based. An excerpt:
The wildtype C. jejuni grew normally, and was not affected by FeQ. A patch was also immersed in a solution of kanamycin and Fe-QA, and placed on a growth plate of wildtype C. jejuni. The growth of C. jejuni was impacted showing that wildtype C. jejuni is sensitive to the presence of kanamycin.
The patch experiments were repeated with a Campylobacter jejuni NCTC 11168 strain carrying a kanamycin resistance gene wherein patches were immersed in (i) kanamycin only, (ii) Fe-QA only, and (iii) kanamycin and Fe-QA. The growth of the C. jejuni strain carrying the kanamycin resistance gene was not impacted by the patches immersed in (i) kanamycin and (ii) Fe-QA, however, the growth was impacted by the patch that was immersed in both kanamycin and Fe-QA.

Assay [5] has as its system Uropathogenic E. coli UPEC-536. Description: Planktonic growth rate in RPMI-1640. The class given is cell-based, Escherichia coli. To be noted: Fe-QA 100 μM, 24 hours. On the procedure: as §1

Turning to `O=C1[O][Fe]23([O]C(=O)[C@]4(C[C@@H](O)[C@H](O)[C@H](O)C4)[O]2)([O]C(=O)[C@]2(C[C@@H](O)[C@H](O)[C@H](O)C2)[O]3)[O][C@@]12C[C@@H](O)[C@H](O)[C@H](O)C2` [FeQ, a complex of quinic acid with Fe III], in assay [1], the “biofilm formation on contact lens (ESEM)” value is recorded as “inhibits biofilm formation”. Also, in assay [2] (ferric quinate solution 340 μM once each day), the “state of acne after treatment for 30 days” value was “completely healed”. The “recurrence of acne after discontinuation of treatment for over one year” value in assay [2] (ferric quinate solution 340 μM once each day for 30 days) was “did not recur”. In assay [3], the “biofilm formation on plastic coated UV beads” value was “inhibited”. The results for the “binding of C. jejuni to Le^b and H-II after growth in medium with Fe-QA” value in the assay with C. jejuni NCTC 11168 (Fe-QA 0.34 mM in medium) and in the assay on C. jejuni NCTC 11168 (Fe-QA 3.4 mM in medium) were “statistically significant decrease” and “marked decrease in binding”, respectively. Further, the “inhibition of binding of C. jejuni 11168 to BgAgs (Core-I, Core-II, H-I, H-II, Leb, Ley, Lex)” value in the assay on C. jejuni NCTC 11168 (bacteria pre-incubated 4 h with Fe-QA 0.34 mM) is given as “significant inhibition of binding”. Also, the planktonic growth rate entry (in the assay on Pseudomonas aeruginosa; in assay [5]) was “does not inhibit the growth” each time. For the same compound, the “growth on plate around patch” value in assay [4] (strain carrying kanamycin resistance gene, patch with Fe-QA only) is listed as “not impacted”; in assay [4] (strain carrying kanamycin resistance gene, patch with kanamycin and Fe-QA), “retarded; also recorded: impacted”; in assay [4] (wildtype C. jejuni (no kanamycin resistance gene), patch with Fe-QA alone), “not affected”; in assay [4] (wildtype C. jejuni, patch with kanamycin and Fe-QA) it was “impacted”.
